Values joined by “and” are separate entries in the source; they are usually repeats but may differ in a detail not shown here. Identical values can stand only once. Inconclusive results and toxic doses are left out. Cut-off read from the data, not from the text of the source: active = T/C of 150% or more; inactive = T/C below 125%.
Test system: L1210 leukemia ip in BDF1 mice, survival T/C
Assay: NCI In Vivo Anticancer Drug Screen. Data for tumor model L1210 Leukemia (intraperitoneal) in B6D2F1 (BDF1) mice
Settings: endpoint: mean survival time, higher = longer survival
Outline: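 Tumor cells were implanted, animals were treated, and survival was followed. The result divides the treated measurement by the vehicle-control measurement.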

[1] = dose: 100.0 mg/kg/injection, schedule: Q01DX001 (ip), vehicle: saline
[2] = dose: 200.0 mg/kg/injection, schedule: Q01DX001 (ip), vehicle: saline
[3] = dose: 100.0 mg/kg/injection, schedule: Q01DX009 (ip), vehicle: saline with Tween-80
[4] = dose: 100.0 mg/kg/injection, schedule: Q04DX003 (ip), vehicle: saline with Tween-80
[5] = dose: 200.0 mg/kg/injection, schedule: Q01DX009 (ip), vehicle: saline with Tween-80
[6] = dose: 200.0 mg/kg/injection, schedule: Q04DX003 (ip), vehicle: saline with Tween-80
[7] = dose: 400.0 mg/kg/injection, schedule: Q01DX009 (ip), vehicle: saline with Tween-80
[8] = dose: 400.0 mg/kg/injection, schedule: Q04DX003 (ip), vehicle: saline with Tween-80

Measured: T/C

COC(=O)C(C)CC(C)(C=O)OC (stereo not drawn)
inactive: dose: 100.0 mg/kg/injection, schedule: Q04DX003 (ip), vehicle: saline 93 % of control | dose: 200.0 mg/kg/injection, schedule: Q04DX003 (ip), vehicle: saline 89 % of control | dose: 400.0 mg/kg/injection, schedule: Q04DX003 (ip), vehicle: saline 89 % of control

C1CC2CCC[N+]3=C2C(C1)CCC3 (stereo not drawn)
inactive: dose: 12.0 mg/kg/injection, schedule: Q04DX003 (ip), vehicle: saline 93 % of control | dose: 12.5 mg/kg/injection, schedule: Q01DX009 (ip), vehicle: saline 97 % of control | dose: 25.0 mg/kg/injection, schedule: Q01DX009 (ip), vehicle: saline 101 % of control | dose: 25.0 mg/kg/injection, schedule: Q04DX003 (ip), vehicle: saline 91 % of control | dose: 50.0 mg/kg/injection, schedule: Q01DX009 (ip), vehicle: saline 101 % of control | dose: 50.0 mg/kg/injection, schedule: Q04DX003 (ip), vehicle: saline 101 % of control

Oc1ccc(Nc2cc(/C=C/c3ccc(Cl)cc3)nc(/C=C/c3ccc(Cl)cc3)n2)cc1CN1CCCC1
inactive: dose: 50.0 mg/kg/injection, schedule: Q01DX001 (ip), vehicle: saline 89 % of control | dose: 50.0 mg/kg/injection, schedule: Q04DX003 (ip), vehicle: Klucel (hydroxypropylcellulose) (HPC) 104 % of control | [1] 93 % of control | dose: 100.0 mg/kg/injection, schedule: Q04DX003 (ip), vehicle: Klucel (hydroxypropylcellulose) (HPC) 95 % of control | [2] 91 % of control | dose: 200.0 mg/kg/injection, schedule: Q04DX003 (ip), vehicle: Klucel (hydroxypropylcellulose) (HPC) 98 % of control

C#CCOCC1CNC(=S)O1 (stereo not drawn)
inactive: [3] 100 % of control | [4] 95 % of control | [5] 98 % of control | [6] 111 % of control | [7] 96 % of control | [8] 97 % of control

C=C(C)C1(CCC(C)C)C(=O)NC(=O)NC1=O
inactive: dose: 75.0 mg/kg/injection, schedule: Q01DX001 (ip), vehicle: saline 109 % of control | dose: 150.0 mg/kg/injection, schedule: Q01DX001 (ip), vehicle: saline 104 % of control | dose: 300.0 mg/kg/injection, schedule: Q01DX001 (ip), vehicle: saline 105 % of control

O=[N+]([O-])c1ccc(/C=N/N2CCCCC2)s1
inactive: [4] 97 % of control | [6] 92 % of control | [8] 89 % of control

Cc1ccc(NC(=O)OCCN(CCOC(=O)Nc2ccc(C)cc2)Cc2ccccc2)cc1
inactive: [1] 94 % of control | [2] 91 % of control | dose: 400.0 mg/kg/injection, schedule: Q01DX001 (ip), vehicle: saline 94 % of control

O=C(CCCN1CCC(O)CC1)c1ccc(N2CC=C(c3ccccc3)CC2)cc1
inactive: dose: 100.0 mg/kg/injection, schedule: Q04DX002 (ip), vehicle: Klucel (hydroxypropylcellulose) (HPC) 104 % of control | dose: 200.0 mg/kg/injection, schedule: Q04DX002 (ip), vehicle: Klucel (hydroxypropylcellulose) (HPC) 100 % of control

O/N=C/c1cccc(/C=N/O)c1
inactive: dose: 50.0 mg/kg/injection, schedule: Q01DX009 (ip), vehicle: saline with Tween-80 94 % of control | dose: 50.0 mg/kg/injection, schedule: Q04DX003 (ip), vehicle: saline with Tween-80 95 % of control | [3] 98 % of control | [4] 97 % of control | [5] 102 % of control | [6] 100 % of control | [7] 95 % of control | [8] 93 % of control

CCOC(=O)C1C=CCCC1 (stereo not drawn)
inactive: [4] 91 % of control | [6] 102 % of control | [8] 94 % of control

c1ccc([C](c2ccccc2)(c2ccccc2)[Ge]([c]2ccccc2)([c]2ccccc2)[c]2ccccc2)cc1
inactive: dose: 12.8 mg/kg/injection, schedule: Q04DX002 (ip), vehicle: saline with Tween-80 93 % of control | dose: 32.0 mg/kg/injection, schedule: Q04DX002 (ip), vehicle: saline with Tween-80 96 % of control | dose: 80.0 mg/kg/injection, schedule: Q04DX002 (ip), vehicle: saline with Tween-80 89 % of control | dose: 200.0 mg/kg/injection, schedule: Q04DX002 (ip), vehicle: saline with Tween-80 89 % of control

NC(=O)c1ccc(N)nc1
inactive: dose: 22.0 mg/kg/injection, schedule: Q01DX001 (ip), vehicle: carboxymethylcellulose (CMC) 104 % of control and 106 % of control | dose: 25.0 mg/kg/injection, schedule: Q01DX001 (ip), vehicle: carboxymethylcellulose (CMC) 106 % of control | dose: 33.0 mg/kg/injection, schedule: Q01DX001 (ip), vehicle: carboxymethylcellulose (CMC) 109 % of control and 114 % of control | dose: 50.0 mg/kg/injection, schedule: Q01DX001 (ip), vehicle: carboxymethylcellulose (CMC) 111 % of control and 112 % of control | dose: 75.0 mg/kg/injection, schedule: Q01DX001 (ip), vehicle: carboxymethylcellulose (CMC) 109 % of control and 90 % of control | dose: 100.0 mg/kg/injection, schedule: Q01DX001 (ip), vehicle: carboxymethylcellulose (CMC) 95 % of control
